Data from publication PMC11394972 (International Journal of Molecular Sciences, 2024).

Tested on: MazF-mt3
Type: biochemical, Mycobacterium tuberculosis
Settings: FAM-labeled 13-nt RNA substrate, 37 °C, 30 min

MazE-mt3 α3–α4: peptide corresponding to the last two helices (α3-α4, Leu46-Trp82) of MazE-mt3; cocrystallized with MazF-mt3 (PDB 8ZWS) (LTGQIDRALESIHGTDEAEALAVANAYRVLETMDDEW)
reduction of the cleavage of the WT MazF-mt3 enzyme (Figure 4A): 15%

B1: MazE-mt3: full-length antitoxin of the M. tb MazEF-mt3 toxin–antitoxin pair, recombinantly expressed (protein)
chain: MKTAISLPDETFDRVSRRASELGMSRSEFFTKAAQRYLHELDAQLLTGQIDRALESIHGTDEAEALAVANAYRVLETMDDEW
modifications: left off: His tag, end not stated, state not stated
notes: full-length antitoxin of the M. tb MazEF-mt3 toxin–antitoxin pair, recombinantly expressed
suppression of the cleavage activity of MazF-mt3 (20 mM Tris-HCl pH 8.0, 150 mM NaCl, urea-PAGE, Figure S8): fully suppress
